Target: human NaV subtype, like NaV 1.7 (Homo sapiens, UniProt Q15858)
Experiment: E-VIPR optical membrane potential assay with electrical stimulation
Format: cell-based
Conditions: active against one or more sodium channels; Table 3 does not name the assay or NaV subtype; read-out: Binned Activity Data (IC50)

human NaV subtype, like NaV 1.7, sequence (Q15858 whole entry): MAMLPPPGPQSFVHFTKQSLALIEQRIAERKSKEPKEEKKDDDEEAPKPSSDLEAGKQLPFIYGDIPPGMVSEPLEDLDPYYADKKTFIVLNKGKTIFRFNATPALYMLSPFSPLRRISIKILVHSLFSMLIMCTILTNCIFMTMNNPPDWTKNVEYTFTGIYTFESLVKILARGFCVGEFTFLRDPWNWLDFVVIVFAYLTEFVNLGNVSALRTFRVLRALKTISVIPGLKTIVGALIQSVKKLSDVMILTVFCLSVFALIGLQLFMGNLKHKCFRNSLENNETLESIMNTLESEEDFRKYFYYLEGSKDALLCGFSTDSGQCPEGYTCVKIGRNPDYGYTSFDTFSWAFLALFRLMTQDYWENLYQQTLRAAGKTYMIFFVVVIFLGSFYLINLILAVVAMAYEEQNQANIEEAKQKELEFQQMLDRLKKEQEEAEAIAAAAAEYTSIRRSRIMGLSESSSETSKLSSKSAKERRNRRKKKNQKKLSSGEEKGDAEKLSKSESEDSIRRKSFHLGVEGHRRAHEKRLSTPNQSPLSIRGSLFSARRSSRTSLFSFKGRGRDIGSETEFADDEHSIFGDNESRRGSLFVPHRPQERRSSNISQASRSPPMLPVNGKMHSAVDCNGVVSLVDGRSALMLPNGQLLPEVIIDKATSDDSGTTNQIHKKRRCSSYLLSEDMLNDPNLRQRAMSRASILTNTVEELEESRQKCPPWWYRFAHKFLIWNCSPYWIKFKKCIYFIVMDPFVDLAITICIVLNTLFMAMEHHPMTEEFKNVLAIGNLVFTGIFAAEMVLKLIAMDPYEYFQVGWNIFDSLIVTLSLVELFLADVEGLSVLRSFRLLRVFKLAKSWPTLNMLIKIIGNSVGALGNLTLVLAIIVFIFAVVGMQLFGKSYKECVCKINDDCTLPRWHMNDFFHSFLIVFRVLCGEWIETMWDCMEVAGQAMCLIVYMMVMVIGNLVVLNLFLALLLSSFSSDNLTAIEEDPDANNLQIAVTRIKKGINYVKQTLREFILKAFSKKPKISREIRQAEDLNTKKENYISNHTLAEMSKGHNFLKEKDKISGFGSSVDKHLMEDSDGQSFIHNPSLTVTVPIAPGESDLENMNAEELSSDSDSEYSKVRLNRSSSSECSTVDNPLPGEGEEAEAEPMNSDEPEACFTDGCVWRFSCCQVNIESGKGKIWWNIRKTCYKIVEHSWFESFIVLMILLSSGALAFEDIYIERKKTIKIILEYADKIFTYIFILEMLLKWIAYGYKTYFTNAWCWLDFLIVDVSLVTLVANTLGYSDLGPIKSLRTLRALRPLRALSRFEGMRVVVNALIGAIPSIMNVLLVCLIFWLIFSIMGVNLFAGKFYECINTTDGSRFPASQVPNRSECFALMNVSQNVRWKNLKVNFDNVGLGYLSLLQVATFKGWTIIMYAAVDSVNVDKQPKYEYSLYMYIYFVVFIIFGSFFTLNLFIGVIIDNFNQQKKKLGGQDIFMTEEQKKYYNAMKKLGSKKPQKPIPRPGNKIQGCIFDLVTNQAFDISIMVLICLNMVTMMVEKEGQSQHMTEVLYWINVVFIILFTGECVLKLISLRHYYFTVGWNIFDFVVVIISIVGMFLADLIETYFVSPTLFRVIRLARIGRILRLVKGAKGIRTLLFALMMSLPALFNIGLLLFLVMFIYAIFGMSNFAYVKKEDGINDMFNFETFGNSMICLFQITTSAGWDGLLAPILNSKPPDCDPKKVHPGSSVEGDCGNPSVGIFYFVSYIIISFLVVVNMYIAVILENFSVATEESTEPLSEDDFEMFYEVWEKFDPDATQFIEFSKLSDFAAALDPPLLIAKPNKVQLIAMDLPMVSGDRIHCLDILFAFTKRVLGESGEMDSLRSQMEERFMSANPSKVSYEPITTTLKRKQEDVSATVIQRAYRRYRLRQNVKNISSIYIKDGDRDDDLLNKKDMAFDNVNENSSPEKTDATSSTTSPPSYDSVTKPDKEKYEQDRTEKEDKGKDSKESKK

SMILES	IC50
CCCCOc1ccc(C(=O)N2CCC3(CC2)c2ccc(C(=O)C(F)(F)F)n2CCN3C)cc1OC [Compound 146]	≤ 2000 nM
CN1CCn2c(Cl)ccc2C12CCN(C(=O)c1ccc(OCC3CC3)cc1)CC2 [Compound 147]	2000 to 5000 nM
Cc1cc(C(=O)N2CCC3(CC2)c2ccc(C(=O)C(F)(F)F)n2CCN3C)ccc1OCCCO [Compound 148]	≤ 2000 nM
COc1cc(C(=O)N2CCC3(CC2)c2ccc(C(F)(F)F)n2CC(C)N3C)ccc1OC(C)C (stereo not drawn) [Compound 149]	≤ 2000 nM
CC(C)C(O)c1ccc(C(=O)N2CCC3(CC2)c2ccc(C(F)(F)F)n2CCN3C)cc1 (stereo not drawn) [Compound 150]	≤ 2000 nM
COc1cc(C(=O)N2CCC3(CC2)c2ccc(C(F)(F)F)n2CCN3C)ccc1C(C)(C)CO [Compound 151]	≤ 2000 nM
CC(C)Oc1ccc(C(=O)N2CCC3(CC2)c2ccc(C(F)(F)F)n2C[C@H](C)N3C)c(F)c1 [Compound 152]	≤ 2000 nM
Cc1cc(S(=O)(=O)C(C)C)ccc1C(=O)N1CCC2(CC1)c1ccc(C(=O)C(F)(F)F)n1CCN2C [Compound 153]	> 5000 nM
CC(C)c1ccc(C(=O)N2CCC3(CC2)c2ccc(C(=O)C(F)(F)F)n2CCN3C)cc1S(C)(=O)=O [Compound 154]	2000 to 5000 nM
CN1CCn2c(C(F)(F)F)ccc2C12CCN(C(=O)c1ccc(Oc3ccccc3)cc1)CC2 [Compound 155]	> 5000 nM
Cc1cc(C(=O)N2CCC3(CC2)c2ccc(C(F)(F)F)n2CCN3CCO)ccc1OC(C)C [Compound 156]	≤ 2000 nM
COc1cc(C(=O)N2CCC3(CC2)c2ccc(C(F)(F)F)n2CCN3C)ccc1OC(C)(C)C [Compound 158]	≤ 2000 nM
Cc1cc(C(F)F)n2ncc(C(=O)N3CCC4(CC3)NCCn3c(C(F)(F)F)ccc34)c2n1 [Compound 159]	2000 to 5000 nM
CC(C)Oc1ccc(C(=O)N2CCC3(CC2)c2ccc(C(=O)C(F)(F)F)n2CCN3C)cc1CO [Compound 160]	≤ 2000 nM
Cc1cc(C(=O)N2CCC3(CC2)c2ccc(C(=O)C4(C)CC4)n2CCN3C)ccc1O [Compound 161]	≤ 2000 nM
CC(C)Nc1ccnc2c(C(=O)N3CCC4(CC3)c3ccc(C(F)(F)F)n3CCN4C)cnn12 [Compound 162]	≤ 2000 nM
CC(=O)c1ccc2n1CCN(C)C21CCN(C(=O)c2ccc(-c3ccccc3)cc2)CC1 [Compound 163]	> 5000 nM
COc1ccc(C(=O)N2CCC3(CC2)c2ccc(C(=O)C(F)(F)F)n2C(C)CN3C)cc1C (stereo not drawn) [Compound 164]	≤ 2000 nM
Cc1cc(C(=O)N2CCC3(CC2)c2ccc(C(F)(F)F)n2CCN3CC#N)ccc1OC(C)C [Compound 165]	≤ 2000 nM
CN1CCn2c(C(F)(F)F)ccc2C12CCN(C(=O)c1cccc(Cl)c1)CC2 [Compound 166]	> 5000 nM
CCN1CCn2c(C(F)(F)F)ccc2C12CCN(C(=O)c1ccc(OC(C)C)c(OC)c1)CC2 [Compound 167]	≤ 2000 nM
COc1cc(C(=O)N2CCC3(CC2)c2ccc(C(F)(F)F)n2CCN3C)ccc1OCCOC(F)(F)F [Compound 168]	≤ 2000 nM
Cc1cc(-c2ccc(C(=O)N3CCC4(CC3)c3ccc(C(=O)C(F)(F)F)n3CCN4C)cc2C)ccn1 [Compound 169]	≤ 2000 nM
COc1cc(C(=O)N2CCC3(CC2)c2ccc(C(F)(F)F)n2CCN3C(C)=O)ccc1OC(C)C [Compound 170]	> 5000 nM
COc1cc(C(=O)N2CCC3(CC2)NCC(C)n2c(C(=O)C(F)(F)F)ccc23)ccc1OCCOC(F)(F)F (stereo not drawn) [Compound 171]	≤ 2000 nM
CN1CCn2c(C(=O)C(F)(F)F)ccc2C12CCN(C(=O)c1ccc(-c3ccccc3)cc1)CC2 [Compound 172]	≤ 2000 nM
COc1ccc(C(=O)N2CCC3(CC2)NCC(C)n2c(C(=O)C(F)(F)F)ccc23)cc1C(F)(F)F (stereo not drawn) [Compound 173]	≤ 2000 nM

SMILES	IC50
CC(=O)c1ccc2n1C(C)(C)CN(C)C21CCN(C(=O)c2ccc(OC(C)C)c(C)c2)CC1 [Compound 174]	≤ 2000 nM
CN1CCn2c(C(=O)C(F)(F)F)ccc2C12CCN(C(=O)c1ccc(OCC(F)(F)F)cc1)CC2 [Compound 175]	≤ 2000 nM
CC(C)S(=O)(=O)c1ccc(C(=O)N2CCC3(CC2)c2ccc(C(=O)C(C)(C)C)n2CCN3C)cc1 [Compound 176]	2000 to 5000 nM
Cc1cc(C(=O)N2CCC3(CC2)c2ccc(C(F)(F)F)n2CCN3C)ccc1F [Compound 177]	> 5000 nM
Cc1nc(C(=O)N2CCC3(CC2)c2cc(C(=O)C(F)(F)F)cn2C(C)(C)CN3C)ccc1OC(C)C [Compound 178]	> 5000 nM
COc1cc(C(=O)N2CCC3(CC2)N[C@H](C)Cn2c(C(F)(F)F)ccc23)ccc1OC(C)C [Compound 179]	2000 to 5000 nM
COc1ccc(C(=O)N2CCC3(CC2)c2ccc(C(=O)c4ccccc4)n2CCN3C)cc1C(F)(F)F [Compound 180]	≤ 2000 nM
CCCCOc1ccc(C(=O)N2CCC3(CC2)NCCn2c(C(F)(F)F)ccc23)cc1OC [Compound 181]	≤ 2000 nM
Cc1cc(C(=O)N2CCC3(CC2)c2ccc(C(=O)C(C)C)n2CCN3C)ccc1OC(C)C [Compound 182]	≤ 2000 nM
CC(C)C(=O)c1ccc2n1CCN(C)C21CCN(C(=O)c2ccc(C(C)(C)O)c(F)c2)CC1 [Compound 183]	≤ 2000 nM
CN1CCn2c(C(F)(F)F)cc(F)c2C12CCN(C(=O)c1ccc(C3CC3)cc1)CC2 [Compound 184]	2000 to 5000 nM
CN1CCn2c(C(=O)C(F)(F)F)ccc2C12CCN(C(=O)c1ccc(OC(F)(F)F)cc1)CC2 [Compound 185]	≤ 2000 nM
COCCN1CCn2c(C(F)(F)F)ccc2C12CCN(C(=O)c1ccc(OC(C)C)c(OC)c1)CC2 [Compound 186]	≤ 2000 nM
COCCOc1ccc(C(=O)N2CCC3(CC2)c2c(F)cc(C(F)(F)F)n2CCN3C)cc1OC [Compound 187]	≤ 2000 nM
COc1cc(C(=O)N2CCC3(CC2)c2c(F)cc(C(F)(F)F)n2CCN3C)ccc1OCC(C)C [Compound 188]	≤ 2000 nM
CCCCc1ccc(C(=O)N2CCC3(CC2)c2ccc(C(C)=O)n2CCN3C)cc1 [Compound 189]	≤ 2000 nM
CCCOc1ccc(C(=O)N2CCC3(CC2)c2ccc(C(F)(F)F)n2CCN3C)cc1OC [Compound 190]	≤ 2000 nM
Cc1cc(C(=O)N2CCC3(CC2)c2ccc(C(=O)C(F)(F)F)n2CCN3C)ccc1-c1cncnc1 [Compound 191]	≤ 2000 nM
CCNS(=O)(=O)c1ccc(C(=O)N2CCC3(CC2)c2ccc(C(C)=O)n2CCN3C)cc1 [Compound 192]	> 5000 nM
CN1CCn2c(C(F)(F)F)cc(F)c2C12CCN(C(=O)c1ccc(C(C)(C)O)cc1)CC2 [Compound 193]	≤ 2000 nM
CNS(=O)(=O)c1ccc(C(=O)N2CCC3(CC2)c2ccc(C(=O)C(F)(F)F)n2CCN3C)cc1C [Compound 194]	≤ 2000 nM
CN1CCn2c(Cl)ccc2C12CCN(C(=O)c1ccc(N3CCCCC3)cc1)CC2 [Compound 195]	> 5000 nM
CN1CCn2c(C(F)(F)F)ccc2C12CCN(C(=O)c1ccc(OC(C)(C)C)cn1)CC2 [Compound 196]	> 5000 nM
CC1(C)Cn2c(C(=O)C(F)(F)F)ccc2C2(CCN(C(=O)c3ccc(S(=O)(=O)C4CC4)cc3)CC2)N1 [Compound 197]	≤ 2000 nM
Cc1nc(C(=O)N2CCC3(CC2)NCC(C)n2c(C(=O)C(F)(F)F)ccc23)ccc1OC(C)C (stereo not drawn) [Compound 198]	≤ 2000 nM
Cc1cc(C(=O)N2CCC3(CC2)c2ccc(C(=O)C(C)(C)C)n2CCN3C)ccc1OC(C)C [Compound 199]	≤ 2000 nM
Cc1nc(C(=O)N2CCC3(CC2)c2ccc(C(F)(F)F)n2CCN3C)ccc1OC(C)C [Compound 200]	≤ 2000 nM

From patent publication US8916565B2, “Pyrrolopyrazine-spirocyclic piperidine amides as modulators of ion channels” (priority 2011, dated 2014)
